These results are taken from US20170326146A1, “METHODS OF TREATING HEPATITIS B INFECTIONS AND RELATED DOSAGE REGIMES” (ContraVir Pharmaceuticals, Inc., priority 2016, published 2017).

Each structure is given as a SMILES string. Values joined by “and” are separate entries in the source; they are usually repeats but may differ in a detail not shown here. Equal values may be shown once.

Series [1] is described as follows: Phase I clinical trial with healthy adults: safety, blood pressure, ECG. The format is in vivo, human. The following applies: healthy subjects. As for the experimental part: Eight healthy subjects were given Compound I orally at a daily dose of 5 mg for administration periods of between 9 and 14 days. […] Additionally, a placebo was administered to four healthy subjects for administration periods of between 9 and 14 days. The subjects were evaluated for changes in baseline blood pressure (FIGS. 1A and 1B: Changes in systolic and diastolic blood pressure, respectively, after administration of 5 mg of Compound I; FIGS. 2A and 2B: Changes in systolic and diastolic blood pressure, respectively, after administration of 10 mg of Compound I; FIGS. 3A and 3B: Changes in systolic and diastolic blood pressure, respectively, after administration of placebo). Furthermore, electrocardiograms (ECGs) were recorded to evaluate the change in baseline of heart rate, RR intervals, PR intervals, QRS duration and QTcF in each subject (FIGS. 4A and 4B: Changes in heart rate and RR interval, respectively, after administration of 5 mg of Compound I; FIGS. 5A and 5B: Changes in heart rate and RR interval, respectively, after administration of 10 mg of Compound I; FIGS. 6A and 6B: Changes in heart rate and RR interval, respectively, after administration of placebo; FIGS. 7A, 7B, and 7C: Changes in PR interval, QRS duration, and QTcF duration, respectively, after administration of 5 mg of Compound I; FIGS. 8A, 8B and 8C: Changes in PR interval, QRS duration, and QTcF duration, respectively, after administration of 10 mg of Compound I; FIGS. 9A, 9B and 9C: Changes in PR interval, QRS duration, and QTcF duration, respectively, after administration of placebo). In the Figures, as well as in Table 2 below, individual subjects are identified by 6-digit numbers. Subjects that were administered 5 mg of Compound I, 10 mg of Compound I, or a placebo, were monitored for between 15 and 18 days, between 9 and 11 days, or between 9 and 18 days after initiation of the study, respectively. […] The baselines are defined as the last variable assessment prior to initiation of the study.

Series [2] can be described thus: Pharmacokinetics of Compound I in human plasma: plasma concentrations of Compound I and tenofovir. The format is in vivo. On the set-up: unit not given here. The following applies: single oral 5 mg dose of Compound I, individual subjects. On the procedure: The pharmacokinetics of Compound I in human plasma was also evaluated. Plasma concentrations of Compound I and tenofovir (TFV) were measured at various time points up to 24 h after oral administration of a single 5 mg dose of Compound I. The results are summarized in Table 2.

Setting [3] is: 5 mg or 10 mg daily, dose groups and placebo not told apart.

For `CCCCCCCCCCCCCCCCOCCCOP(=O)(O)CO[C@H](C)Cn1cnc2c(N)ncnc21` [Compound I, 3-(hexadecyloxy)propyl hydrogen ((R)-1-(6-amino-9H-purin 9-yl)propan-2-yloxy)methylphosphonate], the Adverse events reported result in series [1] (setting [3]) is “Few, minor adverse events (i.e., mild dizziness, headache or nausea)”. Moreover, the ECG abnormalities reported result in series [1] (setting [3]) was “few ECG abnormalities (i.e., intraventricular conduction defect, frequent ventricular complexes and ectopic supraventricular rhythm)”. Also, the “Premature discontinuation of the study” value in series [1] (5 mg or 10 mg of Compound I daily or placebo) was “No subjects needed to discontinue the study prematurely”. Also, the Safety and tolerability entry in series [1] (oral daily dose of 5 mg for 9-14 days) is “safe and well-tolerated”; in series [1] (oral daily dose of 10 mg for 9-14 days) it was “safe and well-tolerated”. The “Pharmacokinetic plasma concentration of Compound I” value in series [2] (0.5 hours post-dose) is 0.303 and 0.567 and <LLOQ < (0.150) (4×) and 1.090 and 0.893; in series [2] (1 hour post-dose) it was 1.310 and 0.592 and 2.980 and 2.080 and <LLOQ < (0.150) (2×) and 1.570 and 0.743; in series [2] (2 hours post-dose) it was 2.030 and 0.310 and 8.530 and 1.530 and 0.753 and 1.820 and 0.180 and 2.180; in series [2] (2.5 hours post-dose), 0.412 and 1.550 and 1.350 and 5.250 and 1.340 and 1.500 and 0.206 and 1.070; in series [2] (3 hours post-dose) it was 2.080 and 1.690 and 1.260 and 1.440 and 4.270 and 1.640 and 4.430 and 0.197; in series [2] (4 hours post-dose), 1.180 and 2.460 and 0.712 and 0.508 and 1.500 and 0.520 and 1.540 and <LLOQ < (0.150). For the same compound, the “Pharmacokinetic plasma concentration of Compound I” value in series [2] (6 hours post-dose) was 0.448 and 0.891 and 0.179 and <LLOQ < (0.150) (3×) and 0.372 and 0.389; in series [2] (10 hours post-dose) it was “<LLOQ < (0.150)”; in series [2] (12 hours post-dose), “<LLOQ < (0.150)”; in series [2] (15 hours post-dose), “<LLOQ < (0.150)”; in series [2] (18 hours post-dose) it was “<LLOQ < (0.150)”; in series [2] (24 hours post-dose), “<LLOQ < (0.150)”. Moreover, the “Pharmacokinetic plasma concentration of Compound I” value in series [2] (Pre-dose) was “<LLOQ < (0.150)”.
For the compound `C[C@H](Cn1cnc2c(N)ncnc21)OCP(=O)(O)O` [TFV, tenofovir], the “Pharmacokinetic plasma concentration of TFV” value was “<LLOQ < (0.500)” in series [2] (0.5 hours post-dose); “<LLOQ < (0.500)” in series [2] (1 hour post-dose); 0.519 and <LLOQ < (0.500) (4×) and 0.528 and 0.733 in series [2] (2 hours post-dose); 0.822 and 0.693 and 0.665 and 0.708 and 0.596 and <LLOQ < (0.500) and 0.959 in series [2] (2.5 hours post-dose); 0.891 and <LLOQ < (0.500) (2×) and 0.764 and 0.900 and 0.781 and 0.648 and 0.918 in series [2] (3 hours post-dose); 1.140 (2×) and <LLOQ < (0.500) and 0.900 and 0.948 and 0.750 and 0.594 and 0.903 in series [2] (4 hours post-dose). For the same compound, the “Pharmacokinetic plasma concentration of TFV” value was 1.370 and 0.560 and 0.908 and 1.110 and 1.080 and 0.711 and 0.609 and 0.804 in series [2] (6 hours post-dose); 1.300 and 0.526 and 0.695 and 0.800 and 0.652 and 0.516 and 0.558 and 0.659 in series [2] (10 hours post-dose); 1.140 and <LLOQ < (0.500) (4×) and 0.535 and 0.664 and 0.574 in series [2] (12 hours post-dose); 1.040 and <LLOQ < (0.500) (6×) and 0.581 in series [2] (15 hours post-dose); 0.759 and <LLOQ < (0.500) (7×) in series [2] (18 hours post-dose); 0.599 and <LLOQ < (0.500) (7×) in series [2] (24 hours post-dose). In addition, the “Pharmacokinetic plasma concentration of TFV” value in series [2] (Pre-dose) is listed as “<LLOQ < (0.500)”.
